Laboratory results reported in PubChem BioAssay AID1259407 (Chemical Carcinogenesis Research Information System (CCRIS), 2018).
Calls of active or inactive are those of the source. No rule for the calls is given here.

Test system: CCRIS mutagenicity, Ames/micronucleus/aberration tests
Test: CCRIS mutagenicity studies
[1] = Test System: AMES SALMONELLA TYPHIMURIUM, Strain/Indicator: TA98, Metabolic Activation: NONE, Method: PREINCUBATION
[2] = Test System: AMES SALMONELLA TYPHIMURIUM, Strain/Indicator: TA100, Metabolic Activation: NONE, Method: PREINCUBATION

COP(N)(=O)SC (configuration not stated)
mutagenic call (Test System: Ames Salmonella typhimurium, Strain/Indicator: TA98, Metabolic Activation: None, Method: Preincubation): active; positive
mutagenic call (Test System: Ames Salmonella typhimurium, Strain/Indicator: TA98, Metabolic Activation: Rat, Liver, S-9 (10%), Aroclor 1254, Method: Preincubation): active; positive
mutagenic call (Test System: Ames Salmonella typhimurium, Strain/Indicator: TA100, Metabolic Activation: None, Method: Preincubation): inactive; negative
mutagenic call (Test System: Ames Salmonella typhimurium, Strain/Indicator: TA100, Metabolic Activation: Rat, Liver, S-9 (10%), Aroclor 1254, Method: Preincubation): inactive; negative

c1ccc2c(c1)ccc1c3ccccc3ccc21
mutagenic call (Test System: AMES SALMONELLA TYPHIMURIUM, Strain/Indicator: TA97, Metabolic Activation: NONE, Method: STANDARD PLATE): inactive; negative
mutagenic call (Test System: AMES SALMONELLA TYPHIMURIUM, Strain/Indicator: TA97, Metabolic Activation: RAT, LIVER, S-9, PCB, Method: STANDARD PLATE): active; positive
mutagenic call (Test System: AMES SALMONELLA TYPHIMURIUM, Strain/Indicator: TA98, Metabolic Activation: NONE, Method: STANDARD PLATE): inactive; negative
mutagenic call (Test System: AMES SALMONELLA TYPHIMURIUM, Strain/Indicator: TA98, Metabolic Activation: RAT, LIVER, S-9, AROCLOR 1254, Method: STANDARD PLATE): active; positive
mutagenic call (Test System: AMES SALMONELLA TYPHIMURIUM, Strain/Indicator: TA98, Metabolic Activation: RAT, LIVER, S-9, PCB, Method: STANDARD PLATE): active; positive
mutagenic call (Test System: AMES SALMONELLA TYPHIMURIUM, Strain/Indicator: TA100, Metabolic Activation: NONE, Method: STANDARD PLATE): inactive; negative
mutagenic call (Test System: AMES SALMONELLA TYPHIMURIUM, Strain/Indicator: TA100, Metabolic Activation: POOLED HUMAN LIVER MICROSOMES, Method: PREINCUBATION): inactive; negative
mutagenic call (Test System: AMES SALMONELLA TYPHIMURIUM, Strain/Indicator: TA100, Metabolic Activation: RAT, LIVER, MICROSOMES, AROCLOR 1254, Method: STANDARD PLATE): active; positive
mutagenic call (Test System: AMES SALMONELLA TYPHIMURIUM, Strain/Indicator: TA100, Metabolic Activation: RAT, LIVER, MICROSOMES, CHRYSENE, Method: STANDARD PLATE): inactive; negative
mutagenic call (Test System: AMES SALMONELLA TYPHIMURIUM, Strain/Indicator: TA100, Metabolic Activation: RAT, LIVER, MICROSOMES, Method: STANDARD PLATE): inactive; negative
mutagenic call (Test System: AMES SALMONELLA TYPHIMURIUM, Strain/Indicator: TA100, Metabolic Activation: RAT, LIVER, S-9, AROCLOR 1254, Method: STANDARD PLATE): active; positive
mutagenic call (Test System: AMES SALMONELLA TYPHIMURIUM, Strain/Indicator: TA100, Metabolic Activation: RAT, LIVER, S-9, PCB, Method: STANDARD PLATE): active; positive
mutagenic call (Test System: AMES SALMONELLA TYPHIMURIUM, Strain/Indicator: TA100, Metabolic Activation: RAT, LIVER, S-9, PHENOBARBITAL AND 5,6-BENZOFLAVONE, Method: PREINCUBATION): active; positive
mutagenic call (Test System: CHINESE HAMSTER OVARY, Strain/Indicator: CHO-K1-BH4 (HGPRT)/6-THIOGUANINE, Metabolic Activation: NONE, Method: STANDARD PLATE): inactive; negative
mutagenic call (Test System: CHINESE HAMSTER OVARY, Strain/Indicator: CHO-K1-BH4 (HGPRT)/6-THIOGUANINE, Metabolic Activation: RAT, LIVER, S-9, AROCLOR 1254, Method: STANDARD PLATE): active; positive
mutagenic call (Test System: CHINESE HAMSTER OVARY, Strain/Indicator: CHO-UV5 (HGPRT)/6-THIOGUANINE, Metabolic Activation: NONE, Method: STANDARD PLATE): inactive; negative
mutagenic call (Test System: CHINESE HAMSTER OVARY, Strain/Indicator: CHO-UV5 (HGPRT)/6-THIOGUANINE, Metabolic Activation: RAT, LIVER, S-9, AROCLOR 1254, Method: STANDARD PLATE): active; positive
mutagenic call (Test System: LACZ TRANSGENIC MOUSE (MUTATM MOUSE), Strain/Indicator: LACZ MUTANT FREQUENCY, Method: LIVER, SPLEEN, LUNG, KIDNEY, BONE MARROW, COLON HARVESTED 7 D AFTER LAST DOSE, DNA ISOLATED): active; positive; g:c to t:a transversions in all organs

O=[N+]([O-])c1ccc(F)c([N+](=O)[O-])c1
mutagenic call (Test System: AMES SALMONELLA TYPHIMURIUM, Strain/Indicator: TA98(1,8-DNP6), Metabolic Activation: NONE, Method: PREINCUBATION): active; positive
mutagenic call (Test System: AMES SALMONELLA TYPHIMURIUM, Strain/Indicator: TA98(NR), Metabolic Activation: NONE, Method: PREINCUBATION): active; positive
mutagenic call [1]: active; positive
mutagenic call (Test System: AMES SALMONELLA TYPHIMURIUM, Strain/Indicator: TA98, Metabolic Activation: RAT, LIVER, S-9, KANECHLOR 500, Method: PREINCUBATION): active; positive
mutagenic call (Test System: AMES SALMONELLA TYPHIMURIUM, Strain/Indicator: TA100(NR), Metabolic Activation: NONE, Method: PREINCUBATION): active; positive
mutagenic call (Test System: AMES SALMONELLA TYPHIMURIUM, Strain/Indicator: TA100/GSH-, Metabolic Activation: NONE, Method: PREINCUBATION): active; positive
mutagenic call [2]: active; positive
mutagenic call (Test System: AMES SALMONELLA TYPHIMURIUM, Strain/Indicator: TA100, Metabolic Activation: RAT, LIVER, S-9, KANECHLOR 500, Method: PREINCUBATION): active; positive

Cc1nc2ccc3ccc4ccc(O)cc4c3c2n1C
mutagenic call (Test System: AMES SALMONELLA TYPHIMURIUM, Strain/Indicator: TA98, Metabolic Activation: RAT, LIVER, S-9, AROCLOR, Method: STANDARD PLATE): active; positive

O=C(O)C1C(C(=O)O)C2(Cl)C(Cl)=C(Cl)C1(Cl)C2(Cl)Cl (configuration not stated)
mutagenic call (End Point: IN VITRO CHROMOSOMAL ABERRATIONS, Test System: CHINESE HAMSTER LUNG FIBROBLAST CELLS (CHL/IU), Metabolic Activation: RAT, LIVER, S-9, PHENOBARBITAL AND 5,6-BENZOFLAVONE): active; positive (structural changes)
mutagenic call (Test System: AMES SALMONELLA TYPHIMURIUM, Strain/Indicator: TA98, Metabolic Activation: HAMSTER, LIVER, S-9, AROCLOR 1254, Method: PREINCUBATION): inactive; negative
mutagenic call [1]: inactive; negative
mutagenic call (Test System: AMES SALMONELLA TYPHIMURIUM, Strain/Indicator: TA98, Metabolic Activation: RAT, LIVER, S-9, AROCLOR 1254, Method: PREINCUBATION): inactive; negative
mutagenic call (Test System: AMES SALMONELLA TYPHIMURIUM, Strain/Indicator: TA100, Metabolic Activation: HAMSTER, LIVER, S-9, AROCLOR 1254, Method: PREINCUBATION): inactive; negative
mutagenic call [2]: inactive; negative
mutagenic call (Test System: AMES SALMONELLA TYPHIMURIUM, Strain/Indicator: TA100, Metabolic Activation: RAT, LIVER, S-9, AROCLOR 1254, Method: PREINCUBATION): inactive; negative
mutagenic call (Test System: AMES SALMONELLA TYPHIMURIUM, Strain/Indicator: TA1535, Metabolic Activation: HAMSTER, LIVER, S-9, AROCLOR 1254, Method: PREINCUBATION): inactive; negative
mutagenic call (Test System: AMES SALMONELLA TYPHIMURIUM, Strain/Indicator: TA1535, Metabolic Activation: NONE, Method: PREINCUBATION): inactive; negative
mutagenic call (Test System: AMES SALMONELLA TYPHIMURIUM, Strain/Indicator: TA1535, Metabolic Activation: RAT, LIVER, S-9, AROCLOR 1254, Method: PREINCUBATION): inactive; negative
mutagenic call (Test System: AMES SALMONELLA TYPHIMURIUM, Strain/Indicator: TA1537, Metabolic Activation: HAMSTER, LIVER, S-9, AROCLOR 1254, Method: PREINCUBATION): inactive; negative
mutagenic call (Test System: AMES SALMONELLA TYPHIMURIUM, Strain/Indicator: TA1537, Metabolic Activation: NONE, Method: PREINCUBATION): inactive; negative
mutagenic call (Test System: AMES SALMONELLA TYPHIMURIUM, Strain/Indicator: TA1537, Metabolic Activation: RAT, LIVER, S-9, AROCLOR 1254, Method: PREINCUBATION): inactive; negative
mutagenic call (Test System: MOUSE LYMPHOMA, Strain/Indicator: L5178Y (TK+/TK-), Metabolic Activation: NONE, Method: MICROWELL): active; positive
mutagenic call (Test System: MOUSE LYMPHOMA, Strain/Indicator: L5178Y (TK+/TK-), Metabolic Activation: NONE, Method: SUSPENSION/PLATE): active; positive
mutagenic call (Test System: MOUSE LYMPHOMA, Strain/Indicator: L5178Y (TK+/TK-), Metabolic Activation: S-9, Method: MICROWELL): active; positive
